In US8545834B2, “G-substrate for the treatment and prevention of parkinson's disease” (The McLean Hospital Corporation, priority 2007, dated 2013):

Experiments:
Akt, GSK3β, ERK1/2, p38 = assay: Western blot of phosphorylation levels of PP2A targets in BE(2)-M17 cells; format: cell-based, human
Excerpt: As described herein, G-substrate overexpression altered the phosphorylation levels of PP2A targets known to play critical roles in cell survival. Akt, GSK3β, and ERK1/2 are known to promote cell survival when phosphorylated (Song et al., J. Cell. Mol. Med. 9: 59-71, 2005; Chen et al., 2004; Ray et al., J. Biol. Chem. 280: 31091-31100, 2005; Tamura et al., FEBS Lett. 569: 249-255, 2004) and phosphorylated p38 is known to mediate cell death in dopaminergic neurons exposed to various toxins including 6-OHDA (Choi et al., J. Biol. Chem. 279: 20451-20460, 2004; Ruano et al., Neurosci. 140: 1157-1168, 2006; Ou et al., Proc. Natl. Acad. Sci. USA 103: 10923-10928, 2006). To test whether changes in phosphorylation levels of these proteins are G-substrate-dependent, both control and G-substrate-expressing cells were exposed to 50 μM 6-OHDA for various durations (t=0, 2, 5 and 10 hr). BE(2)-M17 cells were prepared and cultured as described above. The level of the total and phosphorylated forms of these PP2A substrates was detected by Western blot analysis (FIGS. 7A, 7C, 7E, and 7H).
(§1) Cells and tissue samples were collected from and suspended in lysis buffer containing: 50 mM Tris-HCl, 0.15 M NaCl, 0.32 M sucrose, 1.0 mM EDTA, and 1% NP-40. In addition, phosphatase inhibitors I and II (1:100) and protease inhibitors (1:100) were added fresh prior to cell lysis (Sigma-Aldrich, P2850, P5276, and P8340 respectively). Following cell lysis, the homogenate was centrifuged, a portion of the supernatant was reserved for protein determination (BCA Assay, Pierce, Rockford, Ill.) and the remaining was stored at −20° C. 20 μg (in vitro cell preps) and 50 μg (tissue dissections) of solubilized protein were mixed 1:1 with sample buffer and boiled for 5 min. The samples and molecular weight standards were separated using the Criterion precast 10% SDS-polyacrylamide gel system (Bio-Rad, Hercules, Calif.). After electrophoresis, the proteins were electrically transferred to PVDF membranes at 100 V for 30 min. After transfer, blots were incubated in Tris-buffered saline with 0.1% Tween 20 (TBS-T) containing 5% BSA. Subsequently, blots were incubated with the following antibodies at 4° C. overnight (1:1000 unless otherwise stated): phospho-Akt (ser473), phospho-GSK3β (ser9), phospho-erk1/2, and phospho-p38 (Cell Signaling Technologies, Danvers, Mass.). HRP-conjugated secondary antibodies were then applied and immunoreactive bands were visualized with chemiluminescence (Amersham Biosciences, Arlington Heights, Ill.) and exposed onto film. Immunoblots were then stripped and re-probed for the expression of the total protein (Cell Signaling) and beta-actin (1:10 000) (Abcam) to serve as a loading control. Optical density analysis (NIH image) was used to determine the relative abundance of protein in each sample. The optical densities of the phospho epitopes were standardized to their respective total proteins and this value was used in the statistical analyses.

VMAT2 = assay: Western blot of VMAT2 expression in M17 cells; format: cell-based, human
Excerpt: BE(2)-M17 cells were used to investigate the interaction between G-substrate and α-synuclein, a known risk factor and possible causative agent in Parkinson's disease. […] Likewise, VMAT2 expression was reduced in naïve M17 cells following the reduction in endogenous G-substrate using siRNA (FIG. 10C).
M17 cells transiently and stably overexpression α-synuclein were transfected using the G-substrate lentiviral vector described above.
The PP2A regulation of VMAT 2 was investigated in M17 cells. PP2A levels were reduced using RNAi. […] The effect of PP2A inhibition was not generalized to other dopaminergic markers tested.
as §1

With “G-substrate: human wild type G-substrate (SEQ ID NO.: 1) overexpressed from a lentiviral vector” the “level of phosphorylated p38” value (Akt, GSK3β, ERK1/2, p38; G-substrate overexpression, 50 μM 6-OHDA) was “did not alter”, the “level of pAkt” value (Akt, GSK3β, ERK1/2, p38; G-substrate overexpression, basal and 2, 5 and 10 hours after 50 μM 6-OHDA) was “significant increase” and the “basal level of pGSK3β” value (Akt, GSK3β, ERK1/2, p38; G-substrate-overexpressing cells, basal) was “increased”. For the same substance, the “level of pErk2” value (Akt, GSK3β, ERK1/2, p38; only at 10 hours following 50 μM 6-OHDA, no basal level increase) was “increased”, the “level of pErk1” value (Akt, GSK3β, ERK1/2, p38; similar trend as pErk2, 50 μM 6-OHDA) was “did not reach the statistical significance” and the “VMAT2 expression in α-synuclein overexpressing cells” value (VMAT2; M17 cells transiently and stably overexpressing α-synuclein) was “reversing the α-synuclein-induced loss of VMAT2”. The VMAT2 expression (VMAT2; naïve M17 cells) was “significant increase”.
